# “Also recorded” adds a separate entry of the source.
# Legend:
# [1] = system: PHA activated T cells isolated from human peripheral blood; assay: Thymidine incorporation T cell proliferation assay (PHA activated); assay type: cell-based; conditions: Homo sapiens, T-cell, 72 h, read-out: Human T cell proliferation (IC50 μg/mL)
# Method: Heparinized blood was obtained by vein puncture aseptically from healthy volunteers (25-38 years age). Blood (10 mL) was mixed with incomplete RPMI, layered on 5 mL of Lymphocyte separation medium and centrifuged at 400 g for 20 min at room temperature. Buffy layer was collected and mixed with incomplete RPMI and centrifuged at 4° C. for 10 min at 300 g. Cells were obtained after the RBCs (if any) lysis using hypotonic solution, and washed at 4° C. for 10 min at 300 g. The cells were then suspended in complete RPMI containing 5% FBS and their concentration was adjusted to 2×10^6 cells/mL for T-cell proliferation assay.
# Cell proliferation assay was conducted through standard thymidine incorporation technique. Briefly, isolated T-cells from peripheral blood of healthy individuals were plated at a concentration of 2×10^6 cells/mL in a round bottom 96-well tissue culture plates. Cells were stimulated with 7.5 μg/mL of PHA. […] The plate was then incubated for 72 hours at 37° C. in 5% CO2 incubator. After 72 hours, cultures were pulsed with 0.5 μCi/well tritiated thymidine (Amersham Pharmacia Biotech), and further incubated for 18 h. Cells were harvested onto a glass fiber filters using cell harvester (Innotech, Dottikon, Switzerland). The level of the thymidine incorporated into the cells was measured by a liquid scintillation counter (LS 6500, Beckman Coulter, Fullerton, Calif., USA). Results were expressed as mean count per minute (CPM). The inhibitory activity of compounds on T-lymphocyte proliferation was calculated using the following formula: […]
# [2] = system: ROS production from human neutrophils; assay: Luminol enhanced chemiluminescence oxidative burst, isolated neutrophils; assay type: cell-based; conditions: Neutrophil, serum opsonized zymosan, read-out: Myeloperoxidase dependent Oxidative Burst (IC50 μg/mL) Neutrophils
# Method: Intracellular effect was determined using human peripheral whole blood phagocytes and isolated neutrophils and from mice peritoneum macrophages, where luminol-enhanced chemillumenescence assay was applied. The effect on myeloperoxidase independent ROS production was determined using lucigenin on murine macrophages RAW.267 cells.
# Table 2. […] 267 cells (murine macrophages). DPI is used as standard drug. Reading presents mean±SD of three determinations.
# Heparinized blood was obtained by vein puncture aseptically, from healthy volunteers (25-38 years age). The buffy coat containing polymorhonuclear neutrophils (PMNs) was collected by dextran sedimentation, and cells were isolated after the LSM density gradient centrifugation. […]
# Luminol enhanced chemiluminescence technique was applied to study the effect of compound on ROS from phagocytes, Using whole blood, neutrophil and macrophages Briefly, 25 μL diluted whole blood (1:50 dilution in sterile HBSS^++) or 25 μL of PMNs (1×10^6), or 25 μL of isolated macrophages (1×10^6) were incubated with 25 μL of compound in triplicates and using three different concentrations (1, 10 and 100 μg/mL) using white 96 wells plates. […] Results were monitored as relative light unit (RLU) reading, with peak and total integral values set with repeated scans at 60 seconds intervals, and 1 second points measuring time.
# serum IL-1β = assay: Adjuvant induced arthritis model, serum IL-1β; assay type: in vivo, Sprague Dawley rats; conditions: AIA rats, daily intraperitoneal; Patuletin 25 mg/kg, indomethacin 5 mg/kg
# Method: (§1) All studies were carried out using Female Sprague Dawley (SD) rats weighing 150-250 gms. Animals were kept at 21±2° C. and on a 12-h light/dark cycle, received standardized pelleted diet and tap water. Experiments were performed under the ethical guidelines of the International Association for the study of pain in conscious animals. Each group contains 12 animals with randomly distributed weights into each treatment group.
# (§2) Arthritis was induced by injecting freshly prepared 100 μL of 1 mg suspension of lyophilized Mycobacterium tuberculosis H37Ra (MT H37Ra; DIFCO Laboratories, Detroit, Mich., USA), subcutaneously at the rat tail base using sterile hypodermic needle. Inoculation was carried out under anesthesia with a combination of 20 mg/kg ketamine and 5 mg/kg xylazine, injected intraperitoneally. Compound and the reference drug were administered daily, intraperitoneally using sterile syringes. The positive control received vehicle (5% DMSO+PBS) or saline only; treatment groups received test compounds (25 mg/kg), whereas reference group received indomethacin (5 mg/kg). The doses of the test compounds were selected after preliminary dose finding studies. […]
# The quantitative measurement of TNF-α and IL-1β was done in serum of all groups of animals including arthritic and non-arthritic using commercial ELISA assay kits (Abcam, USA) according to the manufacturer's instructions. […]
# rheumatoid factor = assay: Adjuvant induced arthritis model, serum RA factor; assay type: in vivo, Sprague Dawley rats; conditions: AIA rats, daily intraperitoneal; Patuletin 25 mg/kg, indomethacin 5 mg/kg
# Method: as §1
# Arthritis was induced by injecting freshly prepared 100 μL of 1 mg suspension of lyophilized Mycobacterium tuberculosis H37Ra (MT H37Ra; DIFCO Laboratories, Detroit, Mich., USA), subcutaneously at the rat tail base using sterile hypodermic needle. Inoculation was carried out under anesthesia with a combination of 20 mg/kg ketamine and 5 mg/kg xylazine, injected intraperitoneally. Compound and the reference drug were administered daily, intraperitoneally using sterile syringes. […]
# Measurement of RA factor in rat serum was determined using Tina-quant RFII Kit (Roche Diagnostics, USA) and automated analyzers according to manufacturer's instructions. The test principle involves the reaction of latex bound heat inactivated IgG (antigen) with RF antibodies in the sample to form Ag/Ab complex resulting in agglutination which can be measured turbidimetrically.
# serum glutathione = assay: Adjuvant induced arthritis model, serum glutathione; assay type: in vivo, Sprague Dawley rats; conditions: AIA rats, daily intraperitoneal; Patuletin 25 mg/kg, indomethacin 5 mg/kg
# Method: as §1
# as §2, with “mg/kg).” for “mg/kg). The doses of the test compounds were selected after preliminary dose finding studies.”
# The concentration of reduced form of glutathione was determined in serum using the colorimetric Quantichrome ™ Glutathione assay kit (Bioassay Systems) in duplicates, using 96 well plates and according to manufacturer's instructions. The OD recorded at 412 nm which directly represents the level of glutathione in serum.
structure (smiles),measurement,setting,value
"COc1c(O)cc2oc(-c3ccc(O)c(O)c3)c(O)c(=O)c2c1O [Patuletin, 3,5,7,3′,4′-pentahydroxy-6-methoxy flavones]",IC50,[1],1.2 µg/mL
same,IC50,[2],1.2 µg/mL
same,level of IL-1β in serum versus arthritic control group,serum IL-1β,significant decrease; also recorded: marked decrease
same,level of RA factor (rheumatoid factor) in serum versus arthritic control group,rheumatoid factor,marked decrease
same,level of glutathione in serum versus arthritic control group,serum glutathione,non-significant increase; also recorded: mild increase

# Source: US20150025131A1 (priority 2013, published 2015)
